Measured values reported in US20230010871A1, “COMPLEXES COMPRISING A CA[…] AND AN ACTIVE INGREDIENT AND PROCESSES FOR THEIR PREPARATION” (FOLIUM LABS INC., priority 2019, published 2023).

Experiment: Oral pharmacokinetic profile of CBD and THC complexes in rats (plasma concentration by GC-MS/MS)
Settings: per os single gavage, fasted male rats

Row | SMILES | CBD Cmax (average) (20 mg/kg CBD-based dose, plasma) [ng/mL] | THC average circulating levels in plasma (20 mg/kg THC-based dose)
1 | C=C(C)[C@@H]1CCC(C)=C[C@H]1c1c(O)cc(CCCCC)cc1O [CBD, cannabidiol] | 12.7 | –
2 | CCCCCc1cc(O)c2c(c1)OC(C)(C)[C@@H]1CCC(C)=C[C@@H]21 [pure THC, tetrahydrocannabinol] | – | mostly below the limit of quantitation
